{"source": "patent US20120184624A1", "about": "“Treatment of Alzheimer's Disease” (priority 2010, published 2012)", "key": {"[1]": {"molecular_target": "T1, MID1-α4-PP2Ac complex (Homo sapiens, UniProt P67775+P78318)", "T1 construct": "made in house; host or cells: E. coli BL21", "T1 sequence (P67775 whole entry)": "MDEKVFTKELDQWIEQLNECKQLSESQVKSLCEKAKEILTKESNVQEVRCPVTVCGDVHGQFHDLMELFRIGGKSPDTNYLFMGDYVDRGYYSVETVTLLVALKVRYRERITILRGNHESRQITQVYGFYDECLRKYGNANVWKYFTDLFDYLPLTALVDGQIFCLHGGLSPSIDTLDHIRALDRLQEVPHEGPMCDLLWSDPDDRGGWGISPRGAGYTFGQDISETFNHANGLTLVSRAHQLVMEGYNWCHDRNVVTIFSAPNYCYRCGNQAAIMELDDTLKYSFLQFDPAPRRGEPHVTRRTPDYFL", "T1 sequence (P78318 whole entry)": "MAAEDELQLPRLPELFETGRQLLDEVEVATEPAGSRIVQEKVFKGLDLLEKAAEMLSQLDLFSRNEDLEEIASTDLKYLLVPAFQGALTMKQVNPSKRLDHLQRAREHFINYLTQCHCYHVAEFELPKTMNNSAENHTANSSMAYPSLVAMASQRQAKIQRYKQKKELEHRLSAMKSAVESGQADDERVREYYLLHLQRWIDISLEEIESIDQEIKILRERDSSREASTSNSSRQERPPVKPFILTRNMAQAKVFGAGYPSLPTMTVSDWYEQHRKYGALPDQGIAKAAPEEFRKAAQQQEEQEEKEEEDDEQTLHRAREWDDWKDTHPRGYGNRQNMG", "assay": "Affinity chromatography of the PP2Ac-MID1 B-box-α4 complex", "type": "binding", "conditions": "metformin at different concentrations in the washing buffer", "procedure": "The MID1-B-box-domains, α4, or HIS-tagged PP2Ac were expressed in E. coli BL21. Cells were lysed by French press in buffer A (50 mM Na-phosphate, 300 mM NaCl, 20 mM imidazole, pH 8.0). Lysates were mixed and PP2A-protein complexes were immobilized on Ni-NTA columns (Qiagen) and washed extensively with buffer A containing 10% glycerol and 0.25% Tween20. After washing columns were eluted with buffer A containing different concentrations of metformin. Elutions were analyzed on SDS-Gels followed by Coomassie staining."}, "[2]": {"test_system": "GSK3β", "assay": "Phosphorylation of GSK3β (pSer9) in primary cortical neurons", "type": "cell-based, mouse", "conditions": "2.5 mM metformin over increasing time intervals", "procedure": "(§1) Primary cortical neurons were isolated from brain of wt or transgenic (Mapt^tm1(EGFP)klt Tg(MAPT)8cPdav/J; Jackson Laboratory) embryos at day 14.5. Cortices were collected in DMEM (Lonza) and cells were dissociated by incubation with Trypsin/EDTA for 6.5 min at 37° C. Cells were then diluted in neurobasal medium (Gibco-BRL) containing B27 supplement (Gibco BRL). Cells were plated at a density of 4.0×10^5 onto 0.2 mg/ml poly-D-lysin (Sigma) and 2 μg/ml Laminin (Sigma) coated 12 well plates. Neurons were incubated at 37° C. with 8% CO2. One hour after seeding a complete change of medium was performed. Later on, each 96 hours half volumes of the medium were replaced by fresh medium. After 7 days in culture neurons were treated.\nCell pellets were homogenized in Magic-Mix (48% UREA, 15 mM Tris-HCL pH 7.5, 8.7% Glycerin, 1% SDS, 0.004% Bromphenolblue, 143 mM Mercaptoethanol), sonicated and boiled for 5 min at 95° C. Proteins were resolved on 8 or 10% SDS gels and blotted onto PVDF-membranes (Roche). […]"}, "[3]": {"molecular_target": "T2, PP2A (Mus musculus, UniProt P63330)", "T2 construct": "treated primary neurons with metformin and analyzed PP2A activity in the cell lysates; endogenous in cells; host or cells: primary neurons", "T2 sequence (P63330 whole entry)": "as the sequence (P67775 whole entry) above, with V5L counted along it", "assay": "PP2A activity in lysates of metformin-treated primary neurons", "type": "cell-based", "parameters": "dose or concentration left out as unconfirmed", "procedure": "Afterwards PP2A phosphatase activity was determined using a malachite green assay kit (upstate) following the manufacturer's instructions."}, "[4]": {"test_system": "primary cortical neurons", "assay": "TUNEL assay on primary cortical neurons", "type": "cell-based, mouse", "conditions": "increasing concentrations of metformin, concentrations sufficient to induce tau dephosphorylation", "procedure": "Primary neurons were grown on coverslips with a density of 2×10^5 per 12 well. TUNEL assays were performed using TUNEL enzyme (Roche) and TUNEL label (Roche) following the manufacturer's instructions."}, "[5]": {"test_system": "AMPK", "assay": "Phosphorylation of AMPK (pThr 172) in primary cortical neurons", "type": "cell-based, mouse", "procedure": "as §1\nCells were incubated with the respective substances as follows: Metformin (Sigma) at final concentrations up to 2.5 mM for 1 to >24 hours, okadaic acid (Sigma) at final concentrations from 1 nM to 10 nM for 4 h, Fostricien (Sigma) at final concentration of 1 μM for 4 h and AICAR (cell signalling) at final concentration of 5 mM for 0.5-16 h. For cell treatment without insulin, medium containing B27+insulin supplement was replaced with medium containing B27-supplement without insulin 24 h before treatment. […]\nCell pellets were homogenized in Magic-Mix (48% UREA, 15 mM Tris-HCL pH 7.5, 8.7% Glycerin, 1% SDS, 0.004% Bromphenolblue, 143 mM Mercaptoethanol), sonicated and boiled for 5 min at 95° C. […] Antibodies used in this study were purchased from the following companies: Tau-5 (Biosource), anti-human PHF pSer202 (Thermo scientific), Tau pSer356 (Biosource), Tau pSer262 (Biosource), Tau pSer396 (Sigma), Actin (Sigma), ACC (cell signalling), ACC pSer79 (cell signalling), phospho-S6 ribosomal protein pSer241/244 (cell signalling), p70S6 Kinase (cell signalling), p70S6K pThr421/pSer424 (cell signalling), mTOR (cell signalling), AMPK (cell signallling, AMPK pThr172 (cell singnaling), HRP-anti-rabbit (Amersham), HRP-anti-mouse (Dianova). The resulting bands were quantified using Imagequant5.2. […]"}}}
{"smiles": "CN(C)C(=N)N=C(N)N", "note": "[metformin, Metformin]", "values": [{"measurement": "elution of MID1 B-boxes and α4 from immobilized HIS-tagged PP2Ac", "setting": "[1]", "value": "could be eluted from the column by adding metformin"}, {"measurement": "phosphorylation of GSK3β at position Ser 9 (de-phosphorylation activates the enzyme)", "setting": "[2]", "value": "reduces the phosphorylation"}, {"measurement": "phosphorylation of GSK3β at position Ser 9 (de-phosphorylation activates the enzyme)", "setting": "[2]; listed as Metformin", "value": "increases the activity of GSK3β"}, {"measurement": "phosphatase (PP2A) activity in cell lysates", "setting": "[3]", "value": "significantly increased phosphatase activity"}, {"measurement": "programmed cell death (percentage of apoptotic cells, TUNEL)", "setting": "[4]", "value": "did not cause a significant increase"}, {"measurement": "AMPK phosphorylation (pThr 172)", "setting": "[5]; 2.5 mM for 10 hours", "value": "does induce AMPK phosphorylation significantly"}, {"measurement": "AMPK phosphorylation (pThr 172)", "setting": "[5]; 2.5 mM, shorter intervals of incubation than 10 hours", "value": "no significant effect"}, {"measurement": "AMPK phosphorylation (pThr 172)", "setting": "[5]; smaller amounts than 2.5 mM for 24 hours", "value": "no significant effect"}]}
